Test [1] relates to C. albicans CAI4 (IFM 61937). On the procedure:
(§1) Seven microbial strains were used for OsAFP1 antimicrobial activity testing. P. gingivalis ATCC 33277 cells were cultured in modified Gifu anaerobic medium (GAM) (Nissui, Tokyo, Japan) in an anaerobic jar (Mitsubishi Gas Chemical, Tokyo, Japan) in the presence of a deoxygenating regent (AnaeroPack, Mitsubishi Gas Chemical) for 48 h at 37 °C. E. coli K-12 NBRC3301, S. mutans JCM 5705, S. aureus NBRC 12732, and P. acnes JCM 6473 cells were cultured in Luria-Bertani (LB) broth, brain-heart infusion broth (Nissui), trypticase soy broth (BD Biosciences, Franklin Lakes, NJ, USA), and GAM broth (Nissui), respectively, under facultative anaerobic conditions for 4–24 h at 37 °C. C. albicans CAI4 (IFM 61937) cells were cultured in 0.5 × potato dextrose broth (PDB) supplemented with 25 μg/ml of uridine under facultative anaerobic conditions for 14 h at 30 °C. S. cerevisiae BY4742 and S288C cells were cultured in 0.5 × PDB supplemented with 30 μg/ml of uridine, histidine, and lysine and 60 μg/ml of leucine under facultative anaerobic conditions for 14 h at 27 °C. These microbial strains were purchased from the American Type Culture Collection (Manassas, VA, USA), National Institute of Technology and Evaluation (Tokyo, Japan), RIKEN BioResource Center (Tsukuba, Japan), Medical Mycology Research Center (Chiba, Japan), and GE Healthcare (Little Chalfont, UK).
Antifungal assays to determine the MIC of OsAFP1 were performed as follows. Fungal cells (1 × 10^5 cells) were suspended in 100 μl of the appropriate medium containing 0–32 μM OsAFP1 in 96-well Costar cell culture plates. After incubation, OD650 was measured using a plate reader. […] In those cases, the cultures were plated on agar plates (0.5 × PDB), and the peptide concentration at which viable cell numbers were 1% or less than that in the control culture was considered the MIC. GraphPad Prism version 6.00 for Macintosh (GraphPad Software, La Jolla, CA, USA) was used to calculate IC50 values. Experiments were independently repeated at least three times. Detailed growth conditions for each fungus are provided in the “Microorganisms and culture conditions” section above.

The test system of test [2] is Saccharomyces cerevisiae S288C. Briefly: Antifungal assay (growth inhibition, OD650). The format is cell-based. As to conditions: S. cerevisiae S288C; 0.5 × PDB with supplements, 27 °C, 14 h; MIC = >99% reduction of OD650. On the procedure:
as §1, with “These microbial strains were purchased from the American Type Culture Collection (Manassas, VA, USA), National Institute of Technology and Evaluation (Tokyo, Japan), RIKEN BioResource Center (Tsukuba, Japan), Medical Mycology Research Center (Chiba, Japan), and GE Healthcare (Little Chalfont, UK).” left out
(§2) Antifungal assays to determine the MIC of OsAFP1 were performed as follows. […] After incubation, OD650 was measured using a plate reader. […]

The subject of test [3] is Saccharomyces cerevisiae BY4742. The experiment in a line: Antifungal assay (growth inhibition, OD650). The format is cell-based. The settings on record: S. cerevisiae BY4742; 0.5 × PDB with supplements, 27 °C, 14 h; MIC = >99% reduction of OD650. The procedure:
as §1, with “These microbial strains were purchased from the American Type Culture Collection (Manassas, VA, USA), National Institute of Technology and Evaluation (Tokyo, Japan), RIKEN BioResource Center (Tsukuba, Japan), Medical Mycology Research Center (Chiba, Japan), and GE Healthcare (Little Chalfont, UK).” left out
as §2

Test [4] relates to Propionibacterium acnes JCM 6473. Briefly: Antibacterial assay (BacTiter-Glo ATP luminescence). The format is cell-based. The settings on record: P. acnes JCM 6473; GAM broth, 37 °C; 0–32 μM; MIC = >99% reduction of ATP luminescence. The procedure: as §1
(§3) Recombinant OsAFP1 and its mutants used in this study were prepared as described in “Supplementary Information”. Antibacterial assays to determine the MIC of OsAFP1 were performed using a modified BacTiter-Glo Luminescent cell viability assay kit (Promega, Madison, WI, USA). This assay quantifies ATP in bacterial cultures to determine the number of live cells. All procedures were performed following the manufacturer’s instructions. Briefly, bacterial cells (1 × 10^4 cells/ml) were cultured in 100 μl of the appropriate medium (as specified in the “Microorganisms and culture conditions” section) in the presence of 0–32 μM OsAFP1 in 96-well Costar cell culture plates. After appropriate incubation for 4–40 h, 10 μl of Lucifell ATP-eliminating reagent (Kikkoman, Chiba, Japan) was added to each well to reduce medium-derived ATP and mixed for 10 min using an orbital shaker. The cell culture (50 μl) was mixed gently with BacTiter-Glo reagent (50 μl) in a well of white Optiplate-96 plates. After incubation for 15 s, luminescence at 560 nm was measured using a plate reader. MIC was defined as the minimum concentration of OsAFP1 that reduced the sample ATP luminescence by >99% compared with that of the control culture. Experiments were independently repeated at least three times.

Test [5] relates to Staphylococcus aureus subsp. aureus NBRC 12732. The test is described as above. The settings on record: S. aureus NBRC 12732; trypticase soy broth, 37 °C; 0–32 μM; MIC = >99% reduction of ATP luminescence. The format is cell-based. On the procedure:
as §1, §3

pIC50: −log10 of the molar value. Where no end group is shown, it is not given here. Some results are limits rather than exact numbers.

As usually defined, the MIC is the smallest concentration in the dilution series that meets the test's criterion for growth inhibition. In the case of “OsAFP1: rice defensin (Os02g41904, UniProtKB Q6K209); recombinant mature peptide produced in E. coli, four disulphide bonds (RHCLSQSHRFKGMCVSSNNCANVCRTESFPDGECKSHGLERKCFCKKVC; disulfide (positions not given here); UniProt Q6K209 32-80, looked up)”, the MIC in test [1] (C. albicans CAI4, 1 × 10^5 cells in 100 μl 0.5 × PDB + 25 μg/ml uridine, 30 °C, 14 h, 0–32 μM, MIC = >99% reduction of OD650, repeated at least three times) is 4 µM; in test [2], 16 µM; in test [3], 4 µM; in test [4], >32 µM; in test [5] it was >32 µM. The pIC50 in test [1] (read-out: half maximal inhibitory concentration (IC50), C. albicans CAI4 growth, OD650, GraphPad Prism, wild-type OsAFP1 (Fig. 1a)) was 5.70.

Values taken from paper PMC6065317, “Rice Defensin OsAFP1 is a New Drug Candidate against Human Pathogenic Fungi” (Scientific Reports, 2018).
